Measurements from PMC8717366, “Synthesis and Pharmacological Characterization of Visabron, a Backbone Cyclic Peptide Dual Antagonist of α4β1 (VLA-4)/α9β1 Integrin for Therapy of Multiple Sclerosis” (JACS Au, 2021).
Where two headings read alike, the source gives them in different places. Numbered stars: 1 amine (or outer) side, 2 acyl side, 3 side chain; on linkers, the order of the positions; unused ones are H or OH. Bridge positions count the residues as written; N and C are the ends. Square brackets hold non-standard residues; d marks the D form. Peptide text beside a SMILES is read from it. N(2-Aminoethyl)Gly = O=C(CN(CCN[*:3])[*:1])[*:2]; CO = O=C([*:1])[*:2]; Nlys = NCCCCNCC(=O)O

Experiments:
[1] = target: T1, α4β1 (Jurkat lymphocytes-VCAM-1) (Homo sapiens, UniProt P05556+P13612); assay: Adhesion of Jurkat lymphocytes to immobilized VCAM-1; type: cell-based
T1 construct: host or cells: Jurkat (untreated or TNFα-treated)
Description: (§1) Cell adhesion assay was carried out as previously described[47] with minor modifications. The day before the experiment, each well was coated with VCAM-1 (3 mg/mL) immobilized on the 96-well plate in PBS by overnight incubation at 4 °C. Thereafter, nonspecific binding was blocked by incubating the wells with 1% (w/v) bovine serum albumin (BSA) in Hank’s Balanced Salt Solution (HBSS) containing 5 mM MgCl2 at room temperature for 1 h before use. The cells were labeled by incubation with 12.5 μM 5-chloromethylfluorescein diacetate (CMFDA) in HBSS without 1% BSA at 37 °C for 30 min. The labeled cells were then centrifuged at 1000 rpm and washed twice with HBSS containing 1% BSA to remove excess CMFDA. Labeled cells (about 1 × 10^5 cells/well) were plated on each well in the presence or absence of visabrons and incubated at 37 °C for 60 min. Unbound cells were removed by washing the wells three times with 1% (w/v) BSA in HBSS, and bound cells were lysed by the addition of 0.5% Triton X-100 (diluted in DDW). The fluorescence in each well was quantified with a SPECTRAFluor Plus plate reader (Tecan), at λex = 485 nm and λem = 530 nm. To determine the number of adhered cells from the fluorescence values, a standard curve was generated by serial dilution of known numbers of CMFDA-labeled cells. […]
(§2) Table S6. TMLD- linear peptides inhibition of adhesion of integrin expressing cells to the respective immobilized ligands a a The cells were incubated for 30 min at 37 °C with the cells (1 x 105) in the 96 -well plate, previously covered with extracellular matrix ligand, in 100 µL of HBSS containing calcium and magnesium. After being washed with the same buffer, the adhered cells were lysed by Triton X-100, and the plate was read using Tecan spectrofluorimeter. The inhibitory dose 50% (IC 50) values represent ing mean ± standard deviatio ns (n=6) were calculated from dose response curves. bJurkat cells,VCAM -1; c α9-SW480 overexpressing cells, VCAM-1; d α1-K562 overexpressing cells, collagen IV ;e α2-K562 overexpressing cells, collagen I; f K562 wild type

α9β1-VCAM-1 Fc chimera = α9β1-VCAM-1 Fc chimera (Homo sapiens, UniProt P05556+Q13797); assay: ELISA binding assay, α9β1 to VCAM-1 Fc chimera
Sequence of α9β1-VCAM-1 Fc chimera (Q13797 30-1035, change not shown): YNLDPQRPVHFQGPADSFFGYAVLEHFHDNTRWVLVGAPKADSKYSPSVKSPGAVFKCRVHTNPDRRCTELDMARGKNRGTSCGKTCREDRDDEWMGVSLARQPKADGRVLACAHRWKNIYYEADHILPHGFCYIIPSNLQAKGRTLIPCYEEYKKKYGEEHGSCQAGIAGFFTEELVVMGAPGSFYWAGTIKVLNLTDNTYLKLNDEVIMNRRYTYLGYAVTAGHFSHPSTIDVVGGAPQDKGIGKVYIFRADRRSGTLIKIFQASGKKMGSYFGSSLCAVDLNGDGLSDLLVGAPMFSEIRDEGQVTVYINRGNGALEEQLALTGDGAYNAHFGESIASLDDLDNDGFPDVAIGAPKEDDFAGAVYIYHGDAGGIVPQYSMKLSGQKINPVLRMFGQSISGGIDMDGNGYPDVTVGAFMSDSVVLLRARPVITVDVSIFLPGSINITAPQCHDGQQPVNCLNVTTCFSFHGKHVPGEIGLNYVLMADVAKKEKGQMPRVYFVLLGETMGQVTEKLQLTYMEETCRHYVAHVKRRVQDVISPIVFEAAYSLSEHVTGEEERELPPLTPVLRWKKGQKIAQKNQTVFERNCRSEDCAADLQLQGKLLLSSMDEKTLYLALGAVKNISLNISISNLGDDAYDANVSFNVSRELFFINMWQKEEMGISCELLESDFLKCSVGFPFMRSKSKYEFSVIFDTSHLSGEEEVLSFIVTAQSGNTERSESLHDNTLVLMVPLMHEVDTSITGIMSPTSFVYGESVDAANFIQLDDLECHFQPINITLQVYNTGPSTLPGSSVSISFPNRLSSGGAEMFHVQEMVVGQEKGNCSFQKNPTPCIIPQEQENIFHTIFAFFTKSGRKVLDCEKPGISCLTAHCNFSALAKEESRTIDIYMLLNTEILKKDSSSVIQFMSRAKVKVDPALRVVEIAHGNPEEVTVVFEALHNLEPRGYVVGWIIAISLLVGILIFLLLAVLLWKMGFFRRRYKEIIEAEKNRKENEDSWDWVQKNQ
Sequence of α9β1-VCAM-1 Fc chimera (P05556 21-798, change not shown): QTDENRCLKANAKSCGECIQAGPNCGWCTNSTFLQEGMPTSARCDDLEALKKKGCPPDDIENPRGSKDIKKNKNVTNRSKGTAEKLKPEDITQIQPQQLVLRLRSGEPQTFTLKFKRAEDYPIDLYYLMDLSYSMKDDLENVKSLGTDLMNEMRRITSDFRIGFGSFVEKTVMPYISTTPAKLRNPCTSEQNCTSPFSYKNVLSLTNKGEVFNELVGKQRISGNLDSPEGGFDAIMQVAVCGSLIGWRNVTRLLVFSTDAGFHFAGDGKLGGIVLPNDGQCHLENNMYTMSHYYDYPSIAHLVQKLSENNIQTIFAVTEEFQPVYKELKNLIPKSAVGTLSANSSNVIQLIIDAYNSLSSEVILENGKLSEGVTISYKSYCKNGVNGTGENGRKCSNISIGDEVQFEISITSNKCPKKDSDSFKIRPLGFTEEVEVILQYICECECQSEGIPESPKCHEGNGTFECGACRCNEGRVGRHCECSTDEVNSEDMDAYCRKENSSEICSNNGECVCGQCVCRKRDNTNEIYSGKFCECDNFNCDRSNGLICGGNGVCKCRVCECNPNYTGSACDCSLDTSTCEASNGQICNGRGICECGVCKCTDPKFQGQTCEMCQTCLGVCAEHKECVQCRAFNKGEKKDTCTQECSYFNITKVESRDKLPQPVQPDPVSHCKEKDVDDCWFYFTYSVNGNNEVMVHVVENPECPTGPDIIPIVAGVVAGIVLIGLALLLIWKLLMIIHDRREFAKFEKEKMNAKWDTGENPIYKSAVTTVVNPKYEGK

α5β1-fibronectin = target: T2, α5β1-fibronectin (Homo sapiens, UniProt P05556+P08648); assay: Adhesion of wild-type K562 cells to immobilized fibronectin; type: cell-based; settings: wild-type K562 (α5β1); 30 min at 37 °C; read-out: IC50 α5β1-fibronectin
T2 construct: host or cells: K562 wild type
T2 sequence (P08648 42-894 limits assumed): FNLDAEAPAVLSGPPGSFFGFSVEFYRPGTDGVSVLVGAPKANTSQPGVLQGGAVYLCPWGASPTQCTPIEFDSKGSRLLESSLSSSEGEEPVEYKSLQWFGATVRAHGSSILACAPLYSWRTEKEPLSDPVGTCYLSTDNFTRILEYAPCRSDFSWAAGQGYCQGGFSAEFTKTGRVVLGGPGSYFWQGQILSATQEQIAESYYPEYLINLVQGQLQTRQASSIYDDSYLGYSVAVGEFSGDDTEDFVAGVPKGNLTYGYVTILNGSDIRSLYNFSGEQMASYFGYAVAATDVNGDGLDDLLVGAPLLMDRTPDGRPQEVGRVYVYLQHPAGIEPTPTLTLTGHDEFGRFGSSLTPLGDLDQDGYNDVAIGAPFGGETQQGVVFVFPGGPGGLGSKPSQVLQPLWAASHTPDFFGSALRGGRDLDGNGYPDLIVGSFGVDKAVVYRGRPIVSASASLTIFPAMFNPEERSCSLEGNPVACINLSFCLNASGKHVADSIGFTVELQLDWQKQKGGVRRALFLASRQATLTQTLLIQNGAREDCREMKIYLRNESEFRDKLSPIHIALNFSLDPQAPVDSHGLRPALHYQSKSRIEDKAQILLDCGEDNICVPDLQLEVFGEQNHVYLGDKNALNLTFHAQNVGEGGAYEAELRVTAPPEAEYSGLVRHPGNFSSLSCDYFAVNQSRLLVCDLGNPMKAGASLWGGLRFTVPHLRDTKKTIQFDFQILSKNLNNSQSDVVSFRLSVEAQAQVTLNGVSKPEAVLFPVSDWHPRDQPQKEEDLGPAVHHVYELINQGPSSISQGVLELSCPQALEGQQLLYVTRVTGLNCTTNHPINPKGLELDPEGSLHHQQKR
T2 sequence (P08648 895-1049 limits assumed): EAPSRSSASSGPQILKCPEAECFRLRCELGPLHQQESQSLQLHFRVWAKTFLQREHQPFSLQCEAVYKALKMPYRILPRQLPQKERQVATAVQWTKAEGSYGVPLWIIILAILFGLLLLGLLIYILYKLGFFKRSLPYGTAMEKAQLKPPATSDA
T2 sequence (P05556 21-798): as the sequence (P05556 21-798, change not shown) above
Description: as §1, §2

α2β1-collagen I = target: T3, α2β1-collagen I (Homo sapiens, UniProt P05556+P17301); assay: Adhesion of α2-K562 overexpressor cells to immobilized collagen I; type: cell-based; settings: α2-K562 overexpressed cells; 30 min at 37 °C; read-out: IC50 α2β1-collagen I
T3 construct: expressed in transfected cells; host or cells: K562 transfected with α2 integrin (gift of Dr. M. Hemler)
Description: as §1, §2

α4β1-VCAM-1 Fc chimera = target: T4, α4β1-VCAM-1 Fc chimera (Homo sapiens, UniProt P05556+P13612); assay: ELISA solid-phase ligand-receptor binding, integrin α4β1 to VCAM-1 Fc chimera
T4 construct: purchased R&D Systems Co (Minneapolis, MN)
Description: (§3) Recombinant human VCAM-1 and MadCAM-1 (3 mg/mL in phosphate-buffered saline containing divalent cations), were immobilized on the wells of a 96-well ELISA plate (Dynatech Immulon) by overnight incubation at 4 °C. After washing with HBSST (Hanks’ Balanced Salt solution containing calcium and magnesium and 0.05% Tween-20) the plates were blocked with 5% BSA in HBSST by incubation at 37 °C for 1 h. The plates were washed with HBSST, and recombinant human integrin α4β1 or α4β7 (3 mg/mL) was added in the presence or absence of competitor cyclic peptides, disintegrins, or monoclonal anti-integrin antibodies dissolved in HBSS containing 1% BSA. The plates were thereafter incubated at 30 °C for 3 h, as time-binding had reached a plateau, and then washed 3 times with HBSST. Bound integrins were quantitated using primary anti-integrin polyclonal and monoclonal antibodies at a concentration of 0.5 mg/mL in HBSST containing 1% BSA, and incubated at 37 °C for 1 h. The plates were washed 3 times with HBSST and secondary antibodies- alkaline phosphatase (AP) conjugated (Sigma Co.) were added at dilution 1:1000 and incubated at 37 °C for 1 h. Thereafter, the plates were washed 3 times with HBSST and twice with HBSS and the alkaline phosphatase substrate 4-nitrophenyl phosphate was added to the wells for 30 min. The plates were read using Tecan Spectrophotometer at 405 nm. The level of nonspecific binding was measured in each experiment by determining the level of binding to wells coated with BSA alone.

α4β7-MAdCAM-1 Fc chimera = target: T5, α4β7-MAdCAM-1 Fc chimera (Homo sapiens, UniProt P13612+P26010); assay: ELISA solid-phase ligand-receptor binding, integrin α4β7 to MAdCAM-1 Fc chimera
T5 construct: purchased R&D Systems Co (Minneapolis, MN)
Description: as §3

α1β1-collagen IV = target: T6, α1β1-collagen IV (Homo sapiens, UniProt P05556+P56199); assay: Adhesion of α1-K562 overexpressor cells to immobilized collagen IV; type: cell-based; settings: α1-K562 overexpressed cells; 30 min at 37 °C; read-out: IC50 α1β1-collagen IV
T6 construct: expressed in transfected cells; host or cells: K562 transfected with α1 integrin (gift of Dr. M. Hemler)
T6 sequence (P56199 29-1179): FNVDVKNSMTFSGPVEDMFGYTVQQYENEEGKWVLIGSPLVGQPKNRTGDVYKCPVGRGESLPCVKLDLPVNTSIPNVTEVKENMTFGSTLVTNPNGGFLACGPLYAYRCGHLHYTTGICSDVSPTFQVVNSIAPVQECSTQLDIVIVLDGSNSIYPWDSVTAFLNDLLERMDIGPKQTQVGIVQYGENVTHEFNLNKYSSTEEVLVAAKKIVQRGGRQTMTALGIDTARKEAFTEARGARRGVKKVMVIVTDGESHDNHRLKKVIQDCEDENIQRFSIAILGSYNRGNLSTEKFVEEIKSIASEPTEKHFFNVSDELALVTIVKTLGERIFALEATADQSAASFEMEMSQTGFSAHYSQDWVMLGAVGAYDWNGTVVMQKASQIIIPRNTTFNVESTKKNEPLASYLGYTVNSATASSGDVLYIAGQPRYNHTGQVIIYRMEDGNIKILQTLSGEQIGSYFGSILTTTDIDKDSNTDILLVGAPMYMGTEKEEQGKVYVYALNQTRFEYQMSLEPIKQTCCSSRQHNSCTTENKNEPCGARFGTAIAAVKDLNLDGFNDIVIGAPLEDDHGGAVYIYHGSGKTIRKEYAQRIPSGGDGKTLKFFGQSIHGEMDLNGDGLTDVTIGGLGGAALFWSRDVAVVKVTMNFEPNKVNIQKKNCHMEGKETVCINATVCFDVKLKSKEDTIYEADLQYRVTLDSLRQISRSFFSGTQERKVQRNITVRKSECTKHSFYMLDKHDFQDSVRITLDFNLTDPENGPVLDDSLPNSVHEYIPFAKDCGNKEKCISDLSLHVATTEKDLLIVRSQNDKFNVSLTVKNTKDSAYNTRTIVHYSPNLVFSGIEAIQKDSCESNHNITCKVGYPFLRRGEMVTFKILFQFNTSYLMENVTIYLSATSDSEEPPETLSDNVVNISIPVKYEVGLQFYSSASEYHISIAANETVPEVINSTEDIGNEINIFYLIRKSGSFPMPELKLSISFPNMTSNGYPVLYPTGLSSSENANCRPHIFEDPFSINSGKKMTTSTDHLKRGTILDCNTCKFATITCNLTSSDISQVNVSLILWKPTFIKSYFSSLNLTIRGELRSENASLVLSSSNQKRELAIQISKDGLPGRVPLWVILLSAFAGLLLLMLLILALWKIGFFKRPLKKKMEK
T6 sequence (P05556 21-798): as the sequence (P05556 21-798, change not shown) above
Description: as §1, §2

[2] = Jurkat treated with TNF-α (10 ng/mL) for 24 h, read-out: IC50 Jurkat lymphocytes-VACAM-1 TNFα
[3] = untreated Jurkat lymphocytes (α4β1), read-out: IC50 Jurkat lymphocytes-VACAM-1 control

CSCC[C@@H]1NC(=O)[C@H]([C@@H](C)O)NC(=O)CN(C(=O)[C@@H](N)CCCCN)CCNC(=O)NCCN(CC(=O)N[C@@H](CC(C)C)C(N)=O)C(=O)[C@H](CC(=O)O)NC(=O)[C@H](CC(C)C)NC1=O [visabron c (2–2)] (H-K[N(2-Aminoethyl)Gly]TMLD[N(2-Aminoethyl)Gly]L-NH2; linker 2-7 via CO)
IC50 [1, 2]: 0.5 µM | IC50 [1, 3]: 7 µM | IC50 (α9β1-VCAM-1 Fc chimera): 3.6 µM | IC50 (α5β1-fibronectin): > 10000 µM | IC50 (α2β1-collagen I): > 10000 µM | IC50 (α4β1-VCAM-1 Fc chimera): 2.3 µM | IC50 (α4β7-MAdCAM-1 Fc chimera): > 500 µM | IC50 (α1β1-collagen IV): > 10000 µM

CSCC[C@@H]1NC(=O)[C@H]([C@@H](C)O)NC(=O)CN(C(=O)[C@@H](N)CCCCN)CCCCNC(=O)NCCCCN(CC(=O)N[C@@H](CC(C)C)C(N)=O)C(=O)[C@H](CC(=O)O)NC(=O)[C@H](CC(C)C)NC1=O [visabron c (4–4)] (H-K[Nlys]TMLD[Nlys]L-NH2; linker 2-7 via CO)
IC50 [1, 2]: 0.4 µM | IC50 [1, 3]: 5 µM | IC50 (α9β1-VCAM-1 Fc chimera): 0.4 µM | IC50 (α5β1-fibronectin): > 10000 µM | IC50 (α2β1-collagen I): > 10000 µM | IC50 (α4β1-VCAM-1 Fc chimera): 0.4 µM | IC50 (α4β7-MAdCAM-1 Fc chimera): > 500 µM | IC50 (α1β1-collagen IV): > 10000 µM

natalizumab: clinical-grade monoclonal antibody anti-α4β1 produced by Biogen Co. [reference compound]
IC50 [1, 2]: 0.002 µM | IC50 [1, 3]: 0.005 µM | IC50 (α9β1-VCAM-1 Fc chimera; ELISA binding assay per footnote b, α9-B1LBC3 overexpressed cells named in footnote a, read-out: IC50 α9β1-VCAM-1 Fc chimera): 0.015 µM | IC50 (α5β1-fibronectin): > 10000 µM | IC50 (α2β1-collagen I): > 10000 µM | IC50 (α4β1-VCAM-1 Fc chimera; ELISA binding assay, recombinant human VCAM-1 chimera, read-out: IC50 α4β1-VCAM-1 Fc chimera): 0.01 µM | IC50 (α4β7-MAdCAM-1 Fc chimera; ELISA binding assay, recombinant human MAdCAM-1 chimera, read-out: IC50 α4β7-MAdCAM-1 Fc chimera): 0.015 µM | IC50 (α1β1-collagen IV): > 10000 µM
